Patent US12356984B2, “Paraquat formulation” (priority 2018, dated 2025)

Test: Compatibility (precipitation) of polyvinylalcohol-acetate copolymer with charged active ingredients
Format: physicochemical
Conditions: for Formulability as oil-in-water emulsion (EW): Mowiol 4-88/SPAN 40 and TWEEN 40 system; for Behaviour of polyvinylalcohol when formulated with the charged active ingredient: oil in water emulsion / solution of the active ingredient
Source text: One of the challenges faced when formulating pesticidal compositions is the compatibility of active ingredients with additional formulation ingredients, such as surfactants. This is especially a challenge when the active ingredient is highly charged.

SMILES | Quantity at the maximum ratio of Mowiol 4-88 to glufosinate and water at which the copolymer does not precipitate (ammonium glufosinate / Mowiol 4-88 (20% w/w in water) / water 90.15% w/w) [% w/w] | Quantity at the maximum ratio of Mowiol 4-88 to glyphosate and water at which the copolymer does not precipitate (potassium glyphosate / Mowiol 4-88 (20% w/w in water) / water 93.48% w/w) [% w/w] | Formulability as oil-in-water emulsion (EW) | Behaviour of polyvinylalcohol when formulated with the charged active ingredient
CP(=O)(O)CCC(N)C(=O)O.N (stereo not shown) [Ammonium glufosinate] | 8.49 |  |  | 
O=C(O)CNCP(=O)([O-])O.[K+] [Potassium glyphosate] |  | 5.76 |  | 
CP(=O)(O)CCC(N)C(=O)O (stereo not shown) [glufosinate] |  |  | cannot be formulated as an oil-in-water emulsion (EW) at a commercially acceptable concentration | precipitates out of solution
O=C(O)CNCP(=O)(O)O [glyphosate] |  |  | cannot be formulated as an EW at a commercially acceptable concentration | precipitates out of solution
C[n+]1ccc(-c2cc[n+](C)cc2)cc1 [paraquat] |  |  |  | readily dissolves
